In patent publication US20240409536A1, “COMPOUNDS AND METHODS FOR MODULATING SPLICING” (REMIX THERAPEUTICS INC., priority 2021, published 2024):

Experiments:
HiBiT-tagged HTT protein = experiment: HiBiT protein abundance assay, HTT (K562 HiBiT knock-in cells); format: cell-based, human; conditions: 24 hours
Method in brief: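 K562 cells with endogenous HiBiT knock-in tag, 10-point 3-fold dilutions (top 10 μM final, ≤0.25% DMSO), 24 h at 37 °C. Lytic Nano-Glo HiBiT luminescence, normalized to DMSO and unmodified K562 baselines; IC50 is concentration giving 50% protein abundance from four-parameter fit.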

HTT mRNA = experiment: Gene panel canonical junction qPCR assay, HTT CJ mRNA decrease; format: cell-based, human; conditions: Homo sapiens, canonical junction qPCR, read-out: HTT IC50 (decrease in CJ mRNA levels)
Method in brief: (§1)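 A673 or K562 cells treated with compound; canonical exon-exon junction mRNA quantified by cDNA synthesis and RT-qPCR with junction-spanning primer/probe, normalized to GAPDH, GUSB or PPIA and DMSO (2^(−ΔΔCt)). Percent response from set ΔCt assay windows fitted to 4-parameter logistic; IC50 for CJ decrease.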

SMN2 mRNA = experiment: Gene panel canonical junction qPCR assay, SMN2 CJ mRNA decrease; format: cell-based, human; conditions: Homo sapiens, canonical junction qPCR, read-out: SMN2 IC50 (decrease in CJ mRNA levels)
Method in brief: as §1

Target C mRNA = experiment: Gene panel canonical junction qPCR assay, Target C CJ mRNA decrease; format: cell-based; conditions: Homo sapiens, canonical junction qPCR, read-out: Target C IC50 (decrease in CJ mRNA levels)
Method in brief: as §1

MYB mRNA = experiment: Gene panel canonical junction qPCR assay, MYB CJ mRNA decrease; format: cell-based, human; conditions: Homo sapiens, canonical junction qPCR, read-out: MYB IC50 (decrease in CJ mRNA levels)
Method in brief: as §1

K562 cells = experiment: Cell Titer Glo 2.0 cell viability assay in K562 cells; conditions: 72 hours
Procedure: Compounds described herein were screened for toxicity in K562 (human chronic myelogenous leukemia) and SH-SY5Y (human neuroblastoma) cells using a Cell Titer Glo 2.0 assay.
Cells were plated at 500 cells/well (K562 cells) in 45 μL of IMDM supplemented with 10% FBS in a 384-well opaque plate. Wells containing only medium were used as a blank control. Test compounds (e.g., compounds of Formula (I), (II), or (III)) were first serially diluted in DMSO then diluted 1:100 with IMDM+10% FBS. The final concentration of DMSO was 0.1% in each well. The cells were incubated for 72 hours at 37° C. and 5% CO2 before assaying with Cell Titer Glo 2.0 reagent.

IC50 (HiBiT-tagged HTT protein) [nM] | IC50 (HTT mRNA) [nM] | IC50 (SMN2 mRNA) [nM] | IC50 (Target C mRNA) [nM] | IC50 (MYB mRNA) [nM] | SMILES | Viability (K562 cells)
1000 to 10000 | 1000 to 10000 | < 100 | > 10000 | < 100 | CNC1CCN(c2ccc(C(=O)Nc3cc(F)c4nc(C)cn4c3)c3nnccc23)C1 (centres unmarked) [Compound 231, N-{8-fluoro-2-methylimidazo[1,2-a]pyridin-6-yl}-5-[3-(methylamino)pyrrolidin-1-yl] cinnoline-8-carboxamide] | B (B represents 100-1000 nM)
1000 to 10000 | > 10000 | < 100 | > 10000 | 1000 to 10000 | CNC1CCN(c2ccc(C(=O)Nc3cc(F)c4nc(C)cn4c3)c3ncc(OC)nc23)C1 (stereo in doubt) [Compound 227, (R)—N-(8-fluoro-2-methylimidazo[1,2-a]pyridin-6-yl)-2-methoxy-8-(3-(methylamino)pyrrolidin-1-yl)quinoxaline-5-carboxamide 2,2,2-trifluoroacetate] | A (A represents <100 nM)
100 to 1000 |  | < 100 | 100 to 1000 | < 100 | Cc1cnc2c(C(=O)Nc3cc(F)c4nc(C)cn4c3)ccc(N3C[C@@H](C)N[C@@H](C)C3)c2n1 [Compound 217, 8-((3R,5S)-3,5-dimethylpiperazin-1-yl)-N-{8-fluoro-2-methylimidazo[1,2-a]pyridin-6-yl}-2-methylquinoxaline-5-carboxamide] | B (B represents 100-1000 nM)
> 10000 | > 10000 | < 100 | > 10000 | 100 to 1000 | COCCOc1ccc2c(N3CCC(N(C)C)CC3)ccc(C(=O)Nc3cc(F)c4nc(C)cn4c3)c2n1 [Compound 229, 5-[4-(dimethylamino)piperidin-1-yl]-N-{8-fluoro-2-methylimidazo[1,2-a]pyridin-6-yl}-2-(2-methoxyethoxy)quinoline-8-carboxamide] | A (A represents <100 nM)
1000 to 10000 | 1000 to 10000 | 100 to 1000 |  | 1000 to 10000 | Cc1cn2cc(NC(=O)c3ccc(N4CCC(NC(C)(C)C)C4)c4ccnnc34)cc(F)c2n1 (centres unmarked) [Compound 109] | 
100 to 1000 | 100 to 1000 | < 100 | 100 to 1000 | < 100 | CCNC1CCN(c2ccc(C(=O)Nc3cc(F)c4nc(C)cn4c3)c3nc(C)ccc23)CC1 [Compound 228, 5-[4-(ethylamino)piperidin-1-yl]-N-{8-fluoro-2-methylimidazo[1,2-a]pyridin-6-yl}-2-methylquinoline-8-carboxamide] | A (A represents <100 nM)
1000 to 10000 | 1000 to 10000 | < 100 | 1000 to 10000 | 100 to 1000 | CCNC1CCN(c2ccc(C(=O)Nc3cc(F)c4nc(C)cn4c3)c3nc(OCCOC)ccc23)CC1 [Compound 233, 5-[4-(ethylamino)piperidin-1-yl]-N-{8-fluoro-2-methylimidazo[1,2-a]pyridin-6-yl}-2-(2-methoxyethoxy)quinoline-8-carboxamide] | A (A represents <100 nM)
> 10000 | 1000 to 10000 | > 10000 | > 10000 | > 10000 | Cc1cn2cc(NCc3ccc(N4CCNCC4)c4ccnnc34)cc(F)c2n1 [Compound 230, 8-fluoro-2-methyl-N-{[5-(piperazin-1-yl)cinnolin-8-yl]methyl}imidazo[1,2-a]pyridin-6-amine] | D (D represents greater than 10 μM in K562 cells)
1000 to 10000 | 1000 to 10000 | < 100 | 1000 to 10000 | 100 to 1000 | COCCOc1ccc2c(N3C[C@@H](C)N[C@@H](C)C3)ccc(C(=O)Nc3cc(F)c4nc(C)cn4c3)c2n1 [Compound 232, 5-[(3R,5S)-3,5-dimethylpiperazin-1-yl]-N-{8-fluoro-2-methylimidazo[1,2-a]pyridin-6-yl}-2-(2-methoxyethoxy)quinoline-8-carboxamide] | 
